How the values were obtained:
[1] = system: disseminated candidiasis, aspergillosis and cryptococcosis; assay: drug interaction and efficacy studies in vivo, overall statements; conditions: for adverse effects: at high, use or lower concentrations
Protocol: (§1) Drug interaction and efficacy studies with Compound I combined with either AmB or FCZ against disseminated candidiasis, aspergillosis and cryptococcosis were performed.

A. fumigatus [2] = assay: drug interaction and efficacy study, disseminated aspergillosis; type: in vivo; conditions: Compound I at 0.008 mg/kg combined with AmB at 0.12 mg/kg, versus the compounds administered alone
Protocol: as §1

C. albicans [3] = assay: drug interaction and efficacy study, disseminated candidiasis; type: in vivo; conditions: Compound I 0.03 mg/kg and lower plus 0.03 mg/kg and lower of AmB
Protocol: as §1

C. neoformans [4] = assay: drug interaction and efficacy study, disseminated cryptococcosis; type: in vivo; conditions: combinations of Compound I and FCZ at certain concentrations
Protocol: as §1

A. fumigatus [5] = assay: broth microdilution antifungal susceptibility / drug combination testing in vitro (NCCLS protocol M27-T); type: cell-based
Excerpt: (§2) This has been shown using a broth microdilution technique which is the standard method for antifungal susceptibility testing proposed by the NCCLS (protocol M27-T). Sub-inhibitory concentrations of Compound I in combination with sub-inhibitory concentrations of AmB and sub-inhibitory concentrations of FCZ were employed. The minimal inhibitory concentrations (MICs) for AmB and Compound I were defined as the lowest drug concentration at which there was an absence of growth.
(§3) Additional drug combination testing in vitro was performed to evaluate combinations of Compound I with AmB and FCZ against clinical isolates. There was no antagonism evident between Compound I and AmB against C. albicans, A. fumigatus and C. neoformans. Fractional inhibitory indices (FIC) were approximately 0.50 or lower, indicative of additive or synergistic activity.

C. neoformans [6] = assay: as above; type: cell-based; conditions: for activity against strains of C. neoformans in vitro: sub-inhibitory concentrations
Excerpt: as §2, §3

C. albicans [7] = assay: as above; type: cell-based
Excerpt: as §2, §3

[8] = Compound I in combination with AmB

CCC(C)CC(C)CCCCCCCCC(=O)N[C@H]1C[C@@H](O)[C@@H](NCCN)NC(=O)[C@@H]2[C@@H](O)CCN2C(=O)[C@H]([C@H](O)CCN)NC(=O)[C@H]([C@H](O)[C@@H](O)c2ccc(O)cc2)NC(=O)[C@@H]2C[C@@H](O)CN2C(=O)[C@H]([C@@H](C)O)NC1=O (stereo partly shown) [Compound I]
antagonism of efficacy ([1]; AmB combined with Compound I): no antagonism of efficacy | adverse effects ([1]; Compound I combined with AmB): no adverse effects | adverse effects ([1]; Compound I combined with FCZ): no adverse effects | antagonism of efficacy ([1]; FCZ combined with Compound I): no antagonism of efficacy | survival (A. fumigatus [2]): Significant improvement in survival | efficacy against C. albicans (C. albicans [3]): more efficacious than either agent administered alone | efficacy against C. neoformans (C. neoformans [4]): Beneficial effects on efficacy | activity in vitro (A. fumigatus [5]; [8]): enhanced activity | antagonism between Compound I and AmB (A. fumigatus [5]; in vitro, clinical isolates): no antagonism | activity of fluconazole, CFU numbers (C. neoformans [6]; Compound I combined with fluconazole 0.25, 0.50 and 1.0 µg/ml, organism not printed): significantly enhanced the activity of fluconazole | activity against strains of C. neoformans in vitro (C. neoformans [6]; [8]): enhanced activity | activity against strains of C. neoformans in vitro (C. neoformans [6]; Compound I in combination with FCZ): enhanced activity | colony forming units (CFUs) (C. neoformans [6]; amphotericin B 0.0075, 0.015 and 0.03 µg/ml combined with Compound I 4, 8 and 16 µg/ml, organism not printed): markedly reduced | antagonism between Compound I and AmB (C. neoformans [6]; in vitro, clinical isolates, C. neoformans): no antagonism | activity in vitro (C. albicans [7]; [8]): enhanced activity | antagonism between Compound I and AmB (C. albicans [7]; in vitro, clinical isolates): no antagonism
